{"source": "paper PMC7083837", "about": "(Nature Communications, 2020)", "key": {"[1]": {"biological_target": "T1, SERT WT (Homo sapiens, UniProt P31645)", "T1 construct": "expressed in transfected cells; host or cells: COS-7", "T1 sequence (P31645 whole entry)": "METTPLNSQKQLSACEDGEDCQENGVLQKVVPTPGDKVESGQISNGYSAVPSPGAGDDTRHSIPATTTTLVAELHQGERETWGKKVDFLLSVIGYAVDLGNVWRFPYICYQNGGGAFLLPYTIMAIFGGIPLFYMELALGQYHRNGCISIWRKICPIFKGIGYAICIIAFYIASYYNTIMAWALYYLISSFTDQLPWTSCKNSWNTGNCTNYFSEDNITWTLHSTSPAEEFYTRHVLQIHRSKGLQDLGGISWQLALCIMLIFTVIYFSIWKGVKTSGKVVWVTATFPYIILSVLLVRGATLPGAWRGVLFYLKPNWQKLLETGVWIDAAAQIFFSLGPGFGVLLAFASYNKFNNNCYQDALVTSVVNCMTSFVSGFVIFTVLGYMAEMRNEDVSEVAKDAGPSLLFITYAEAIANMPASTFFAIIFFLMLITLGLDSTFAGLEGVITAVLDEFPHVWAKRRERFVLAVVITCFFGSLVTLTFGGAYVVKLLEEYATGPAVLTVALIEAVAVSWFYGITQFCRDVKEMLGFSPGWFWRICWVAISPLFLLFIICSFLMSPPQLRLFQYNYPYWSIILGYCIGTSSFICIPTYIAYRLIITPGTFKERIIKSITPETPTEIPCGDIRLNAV", "assay": "[3H]5-HT uptake in intact COS-7 cells", "format": "cell-based", "details": "read-out: KM (5-HT); SERT WT"}, "[2]": {"biological_target": "T1, SERT WT", "assay": "[3H]S-CIT competition (equilibrium) binding on COS-7 membranes;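 as to all read-outs here: transiently transfected cell membranes incubated 1 h at room temperature with 5–10 nM [3H]S-CIT, nonspecific binding defined using 5 µM paroxetine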", "details": "COS-7 membranes, SERT WT; read-out: Inhibition of [^3H]S-CIT binding (IC50)"}, "[3]": {"biological_target": "T1, SERT WT", "assay": "[3H]S-CIT dissociation rate assay (allosteric potency)", "format": "binding", "details": "for IC50: read-out: Allosteric potency inhibition of [^3H]S-CIT dissociation (IC50)"}, "[4]": {"biological_target": "T1, SERT WT", "assay": "[3H]IMI dissociation rate assay (allosteric potency);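 as to all read-outs here: membranes of COS-7 cells transiently expressing hSERT, dissociation of prebound radioligand tracked by filtration over seven time points (5–70 min), rate constant with test ligand expressed relative to buffer-only rate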", "format": "binding", "details": "SERT WT; for IC50: read-out: Allosteric potency inhibition of [^3H]IMI dissociation (IC50)"}, "[5]": {"system": "extracellular 5-HT levels in rat hippocampus", "assay": "Microdialysis in ventral hippocampus of freely moving rats;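 as to extracellular 5-HT level: percent of mean basal level in three fractions before perfusion start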", "format": "in vivo", "set-up": "extracellular 5-HT level / AUC: unit not given here", "details": "single animals"}, "[6]": {"details": "log conc -5.4318, listed as AE56461"}, "[7]": {"details": "log conc -5.9101, listed as AE56461"}, "[8]": {"details": "log conc -5.9101, listed as AF60098"}}, "note": "“And” between values parts separate entries of the source, which are not always exact repeats. Equal entries are not always repeated."}
{"smiles": "NCCc1c[nH]c2ccc(O)cc12", "note": "[5-HT, Serotonin, reference compound]", "values": [{"measurement": "Km", "setting": "[1]", "result": 0.52, "unit": "µM"}]}
{"smiles": "NC(=O)c1ccc2c(c1)CO[C@@]2(CCCN1CCC(c2ccc3c(c2)NC(=O)CC3)CC1)c1ccc(F)cc1", "note": "[AE, (S)-1-(4-fluorophenyl)-1-(3-(4-(2-oxo-1,2,3,4-tetrahydroquinolin-7-yl)piperidin-1-yl)propyl)-1,3-dihydroisobenzofuran-5-carboxamide]", "values": [{"measurement": "IC50", "setting": "[2]", "result": 1040, "unit": "nM"}, {"measurement": "[^3H]S-CIT dissociation relative to control (source data Fig 3B)", "setting": "[3]; log conc -4, listed as AE56461", "result": "0.304 and 0.27 and 0.327"}, {"measurement": "[^3H]S-CIT dissociation relative to control (source data Fig 3B)", "setting": "[3]; log conc -4.47756, listed as AE56461", "result": "0.466 and 0.496 and 0.522"}, {"measurement": "[^3H]S-CIT dissociation relative to control (source data Fig 3B)", "setting": "[3]; log conc -4.95468, listed as AE56461", "result": "0.654 and 0.732 and 0.716"}, {"measurement": "[^3H]S-CIT dissociation relative to control (source data Fig 3B)", "setting": "[3]; [6]", "result": "0.892 and 0.93 and 0.888"}, {"measurement": "[^3H]S-CIT dissociation relative to control (source data Fig 3B)", "setting": "[3]; [7]", "result": "0.912 and 1.007 and 0.973"}, {"measurement": "[^3H]S-CIT dissociation relative to control (source data Fig 3B)", "setting": "[3]; log conc -6.38561, listed as AE56461", "result": "0.927 and 1.032 and 0.97"}, {"measurement": "[^3H]S-CIT dissociation relative to control (source data Fig 3B)", "setting": "[3]; log conc -6.86273, listed as AE56461", "result": "0.952 and 1.031 and 0.987"}, {"measurement": "IC50", "setting": "[3]", "result": 33800, "unit": "nM"}, {"measurement": "[^3H]IMI dissociation relative to control (source data Fig 3C)", "setting": "[4]; log conc -4.4776, listed as AE56461", "result": "0.06439 and 0.064 and 0.0867 and 0.04446 and 0.04701"}, {"measurement": "[^3H]IMI dissociation relative to control (source data Fig 3C)", "setting": "[4]; [6]", "result": "0.0763 and 0.076 and 0.0996 and 0.0916 and 0.07313"}, {"measurement": "[^3H]IMI dissociation relative to control (source data Fig 3C)", "setting": "[4]; [7]", "result": "0.1205 and 0.121 and 0.184 and 0.1786 and 0.1244"}, {"measurement": "[^3H]IMI dissociation relative to control (source data Fig 3C)", "setting": "[4]; log conc -6.3856, listed as AE56461", "result": "0.2609 and 0.261 and 0.334 and 0.3145 and 0.2627"}, {"measurement": "[^3H]IMI dissociation relative to control (source data Fig 3C)", "setting": "[4]; log conc -6.8627, listed as AE56461", "result": "0.4485 and 0.449 and 0.476 and 0.4376 and 0.458"}, {"measurement": "[^3H]IMI dissociation relative to control (source data Fig 3C)", "setting": "[4]; log conc -7.3398, listed as AE56461", "result": "0.6779 and 0.678 and 0.684 and 0.679 and 0.715"}, {"measurement": "[^3H]IMI dissociation relative to control (source data Fig 3C)", "setting": "[4]; log conc -7.817, listed as AE56461", "result": "0.9119 and 0.9318 and 0.9209 and 0.831 and 0.9158"}, {"measurement": "[^3H]IMI dissociation relative to control (source data Fig 3C)", "setting": "[4]; log conc -8.2941, listed as AE56461", "result": "1.0028 and 1.006 and 0.9639 and 1.0302 and 1.0089"}, {"measurement": "[^3H]IMI dissociation relative to control (source data Fig 3C)", "setting": "[4]; log conc -8.7712, listed as AE56461", "result": "0.9594 and 0.977 and 0.9693 and 1.1187 and 1.1091"}, {"measurement": "IC50", "setting": "[4]", "result": "119 nM and 120 nM"}]}
{"smiles": "NC(=O)c1ccc2c(c1)CO[C@@]2(CCCN1CC=C(c2ccc3ccc(=O)[nH]c3c2)CC1)c1ccc(F)cc1", "note": "[AF, (S)-1-(4-fluorophenyl)-1-(3-(4-(2-oxo-1,2-dihydroquinolin-7-yl)-3,6-dihydropyridin-1(2H)-yl)propyl)-1,3-dihydroisobenzofuran-5-carboxamide]", "values": [{"measurement": "IC50", "setting": "[2]", "result": 79, "unit": "nM"}, {"measurement": "[^3H]S-CIT dissociation relative to control (source data Fig 3B)", "setting": "[3]; log conc -4, listed as AF60098", "result": "0.1701 and 0.2211 and 0.1573 and 0.2182 and 0.2661"}, {"measurement": "[^3H]S-CIT dissociation relative to control (source data Fig 3B)", "setting": "[3]; log conc -4.47756, listed as AF60098", "result": "0.2756 and 0.2914 and 0.2326 and 0.2923 and 0.3084"}, {"measurement": "[^3H]S-CIT dissociation relative to control (source data Fig 3B)", "setting": "[3]; log conc -4.95468, listed as AF60098", "result": "0.3758 and 0.4105 and 0.4138 and 0.4162 and 0.3863"}, {"measurement": "[^3H]S-CIT dissociation relative to control (source data Fig 3B)", "setting": "[3]; log conc -5.4318, listed as AF60098", "result": "0.7059 and 0.6013 and 0.6811 and 0.5633 and 0.7156"}, {"measurement": "[^3H]S-CIT dissociation relative to control (source data Fig 3B)", "setting": "[3]; [8]", "result": "0.8853 and 0.874 and 0.8934 and 0.8911 and 0.9427"}, {"measurement": "[^3H]S-CIT dissociation relative to control (source data Fig 3B)", "setting": "[3]; log conc -6.38561, listed as AF60098", "result": "0.9692 and 0.7987 and 0.9599 and 0.9034 and 0.9936"}, {"measurement": "[^3H]S-CIT dissociation relative to control (source data Fig 3B)", "setting": "[3]; log conc -6.86273, listed as AF60098", "result": "0.955 and 0.9328 and 0.9433 and 0.9567 and 0.9549"}, {"measurement": "IC50", "setting": "[3]", "result": 10400, "unit": "nM"}, {"measurement": "[^3H]IMI dissociation relative to control (source data Fig 3C)", "setting": "[4]; [8]", "result": "0.2397 and 0.2132 and 0.1806 and 0.1901 and 0.1781"}, {"measurement": "[^3H]IMI dissociation relative to control (source data Fig 3C)", "setting": "[4]; log conc -6.3856, listed as AF60098", "result": "0.6028 and 0.4774 and 0.425 and 0.3481 and 0.3211"}, {"measurement": "[^3H]IMI dissociation relative to control (source data Fig 3C)", "setting": "[4]; log conc -6.8627, listed as AF60098", "result": "0.7993 and 0.6981 and 0.6134 and 0.5939 and 0.5386"}, {"measurement": "[^3H]IMI dissociation relative to control (source data Fig 3C)", "setting": "[4]; log conc -7.3398, listed as AF60098", "result": "0.7825 and 0.9163 and 0.612 and 0.781 and 0.6966"}, {"measurement": "[^3H]IMI dissociation relative to control (source data Fig 3C)", "setting": "[4]; log conc -7.817, listed as AF60098", "result": "0.8219 and 0.9518 and 0.9715 and 0.9341 and 0.8939"}, {"measurement": "IC50", "setting": "[4]", "result": "192 nM and 190 nM"}]}
{"smiles": "CN(C)CCCN1c2ccccc2CCc2ccccc21", "note": "[imipramine, reference compound]", "values": [{"measurement": "AUC", "setting": "[5]; Fig 6B Inset", "result": "84 and 92 and 130 and 62 and 48 and 46 and 143 and 182 and 163 and 129 and 74 and 127 and 73"}, {"measurement": "extracellular 5-HT level", "setting": "[5]; Fig 6B, Time -40", "result": "77.25 and 153.32 and 98.52 and 112.22 and 48.77 and 123.66 and 115.15 and 92.18 and 91.72 and 110.66 and 146.17"}]}
